Measurements reported in patent US11331299B2, “Medicinal use of serrulatane diterpenes” (The University of Sydney, priority 2016, dated 2022).
Where two headings read alike, the source gives them in different places.

System: 280 human cancer cell lines
Assay: OncoPanel cell proliferation assay (10-day)
Format: cell-based
Settings: Homo sapiens; for GI50: read-out: Cell Count GI50; for IC50: read-out: Cell Count IC50; for EC50: read-out: Cell Count EC50
[1] = C-4-II, C-4 II, Female GU - Cervix
[2] = C-33-A, C-33A, Female GU - Cervix
[3] = CAL-62, CAL-62, Endocrine - Thyroid
[4] = CCF-STTG1, CCF-STTG1, CNS - Glioma
[5] = CGTH-W-1, CGTH-W-1, Endocrine - Thyroid
[6] = CHP-212, CHP-212, CNS - Neuroblastoma
[7] = COLO-320-HSR, Colo 320 HSR, Colon
[8] = COLO-829, COLO 829, Skin (Melanoma)
[9] = COR-L105, COR-L105, Lung - NSCLC
[10] = Ca-Ski, Ca Ski, Female GU - Ovary

`CC(C)=CCC[C@@H]1C(O)Oc2c(C)cc(O)c3c2[C@H]1CC[C@H]3C` (some centres unmarked) [Compound 2, 5,18-epoxyserrulat-14-en-8,18-diol] gave a GI50 (BT-474, BT474, Breast) greater than 30 µM, an IC50 (BT-474, BT474, Breast) greater than 30 µM and an EC50 (BT-549, BT-549, Breast) of 25.8 µM. For the same compound, the GI50 (BT-549, BT-549, Breast) was 25.8 µM, the IC50 (BT-549, BT-549, Breast) was 25.9 µM and the EC50 (BV-173, BV-173, Leukemia) was 9.33 µM. For the same compound, the GI50 (BV-173, BV-173, Leukemia) was 9.33 µM, the IC50 (BV-173, BV-173, Leukemia) was 9.33 µM and the EC50 (BXPC-3, BxPC-3, Pancreas) was 13 µM. It also gave a GI50 (BXPC-3, BxPC-3, Pancreas) greater than 30 µM, an IC50 (BXPC-3, BxPC-3, Pancreas) greater than 30 µM and an EC50 (BeWo, Placenta) of 7.68 µM. The GI50 (BeWo, Placenta) was greater than 30 µM, the IC50 (BeWo, Placenta) was greater than 30 µM and the EC50 (C32, Skin (Melanoma)) was 19.2 µM. It also gave a GI50 (C32, Skin (Melanoma)) of 15.5 µM, an IC50 (C32, Skin (Melanoma)) of 19.2 µM and an EC50 [1] of 8.94 µM. For the same compound, the GI50 [1] was 9 µM, the IC50 [1] was 9.03 µM and the EC50 [2] was 12 µM. It also gave a GI50 [2] of 11.9 µM, an IC50 [2] of 12 µM and an EC50 (CA46, CA46, Lymphoma) of 3.83 µM. It also gave a GI50 (CA46, CA46, Lymphoma) of 3.82 µM, an IC50 (CA46, CA46, Lymphoma) of 3.83 µM and an EC50 (CAKI-1, Caki-1, Kidney) of 0.17 µM. For the same compound, the GI50 (CAKI-1, Caki-1, Kidney) was greater than 30 µM, the IC50 (CAKI-1, Caki-1, Kidney) was greater than 30 µM and the EC50 (CAKI-2, Caki-2, Kidney) was 28.8 µM. The GI50 (CAKI-2, Caki-2, Kidney) was 28.9 µM, the IC50 (CAKI-2, Caki-2, Kidney) was 29.1 µM and the EC50 (CAL-27, Cal 27, Head and Neck) was 7.64 µM. It also gave a GI50 (CAL-27, Cal 27, Head and Neck) of 7.62 µM, an IC50 (CAL-27, Cal 27, Head and Neck) of 7.64 µM and an EC50 [3] of 5.6 µM. For the same compound, the GI50 [3] was 5.78 µM, the IC50 [3] was 5.79 µM and the EC50 (CAMA-1, CAMA-1, Breast) was greater than 30 µM. For the same compound, the GI50 (CAMA-1, CAMA-1, Breast) was greater than 30 µM, the IC50 (CAMA-1, CAMA-1, Breast) was greater than 30 µM and the EC50 (CAPAN-1, Capan-1, Pancreas) was greater than 30 µM. For the same compound, the GI50 (CAPAN-1, Capan-1, Pancreas) was greater than 30 µM, the IC50 (CAPAN-1, Capan-1, Pancreas) was greater than 30 µM and the EC50 [4] was greater than 30 µM. The GI50 [4] was greater than 30 µM, the IC50 [4] was greater than 30 µM and the EC50 (CCRF-CEM, CCRFCEM, Leukemia) was 11.5 µM. For the same compound, the GI50 (CCRF-CEM, CCRFCEM, Leukemia) was 11.4 µM, the IC50 (CCRF-CEM, CCRFCEM, Leukemia) was 11.5 µM and the EC50 (CEM/C1, CEM-C1, Leukemia) was 3.26 µM. For the same compound, the GI50 (CEM/C1, CEM-C1, Leukemia) was 3.26 µM, the IC50 (CEM/C1, CEM-C1, Leukemia) was 3.26 µM and the EC50 (CFPAC-1, CFPAC-1, Pancreas) was 12.3 µM. The GI50 (CFPAC-1, CFPAC-1, Pancreas) was 13.4 µM, the IC50 (CFPAC-1, CFPAC-1, Pancreas) was 13.5 µM and the EC50 [5] was 5.83 µM. It also gave a GI50 [5] of 5.81 µM, an IC50 [5] of 5.83 µM and an EC50 (CHL-1, CHL-1, Skin (Melanoma)) of 14.3 µM. For the same compound, the GI50 (CHL-1, CHL-1, Skin (Melanoma)) was 14.2 µM, the IC50 (CHL-1, CHL-1, Skin (Melanoma)) was 14.3 µM and the EC50 [6] was 11.4 µM. It also gave a GI50 [6] of 11.1 µM, an IC50 [6] of 11.4 µM and an EC50 (CML-T1, CML-T1, Leukemia) of 3.69 µM. The GI50 (CML-T1, CML-T1, Leukemia) was 3.68 µM, the IC50 (CML-T1, CML-T1, Leukemia) was 3.69 µM and the EC50 (COLO 201, Colo 201, Colon) was 8.51 µM. The GI50 (COLO 201, Colo 201, Colon) was 8.45 µM, the IC50 (COLO 201, Colo 201, Colon) was 8.51 µM and the EC50 (COLO 205, Colo 205, Colon) was 10.7 µM. The GI50 (COLO 205, Colo 205, Colon) was 10.7 µM, the IC50 (COLO 205, Colo 205, Colon) was 10.7 µM and the EC50 (COLO 320DM, Colon) was 7.72 µM. For the same compound, the GI50 (COLO 320DM, Colon) was 7.67 µM, the IC50 (COLO 320DM, Colon) was 7.72 µM and the EC50 [7] was 11.6 µM. It also gave a GI50 [7] of 11.6 µM, an IC50 [7] of 11.6 µM and an EC50 [8] of 5.35 µM. The GI50 [8] was 4.93 µM, the IC50 [8] was 5.35 µM and the EC50 (COR-L23, COR-L23, Lung - NSCLC) was 23.8 µM. The GI50 (COR-L23, COR-L23, Lung - NSCLC) was 23.6 µM, the IC50 (COR-L23, COR-L23, Lung - NSCLC) was 23.8 µM and the EC50 [9] was 4.76 µM. The GI50 [9] was 4.61 µM, the IC50 [9] was 4.76 µM and the EC50 (CRO-AP2, CRO-AP2, Lymphoma) was 6.38 µM. It also gave a GI50 (CRO-AP2, CRO-AP2, Lymphoma) of 6.36 µM, an IC50 (CRO-AP2, CRO-AP2, Lymphoma) of 6.38 µM and an EC50 [10] greater than 30 µM. For the same compound, the GI50 [10] was greater than 30 µM, the IC50 [10] was greater than 30 µM and the EC50 (Calu-1, Calu1, Lung - NSCLC) was 13.9 µM. For the same compound, the GI50 (Calu-1, Calu1, Lung - NSCLC) was 13.8 µM, the IC50 (Calu-1, Calu1, Lung - NSCLC) was 13.9 µM and the EC50 (Calu-6, Calu6, Lung - NSCLC) was 14.5 µM. For the same compound, the GI50 (Calu-6, Calu6, Lung - NSCLC) was 15.7 µM and the IC50 (Calu-6, Calu6, Lung - NSCLC) was 16.6 µM.
